Test results as given in PMC9299836 (eLife, 2022).
Where “and” joins values, the source holds several entries; their conditions need not be identical. Equal entries are not always repeated.

How the values were obtained:
mGluR2 [1] = molecular target: mGluR2 (Mus musculus, UniProt Q14BI2, A548F); test: Single-molecule FRET (SiMPull) of azi-CRD: population histograms and state occupancy; conditions: for smFRET Histogram, Mean: N 3; for Mean occupancy, state 1 (inactive, FRET 0.24) / Mean occupancy, state 2 (intermediate 1, FRET 0.38) / Mean occupancy, state 3 (intermediate 2, FRET 0.70) / Mean occupancy, state 4 (active, FRET 0.87): azi-CRD, 5 μM modulator, fraction of total area;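 on all read-outs here: Cy3/Cy5-labelled receptor from HEK293T cell lysate captured on anti-FLAG surfaces, apparent FRET efficiency computed from donor and acceptor intensities with crosstalk correction, pooled into population histograms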
mGluR2 (Mus musculus, UniProt Q14BI2, A548F), sequence (Q14BI2 19-872 A548F): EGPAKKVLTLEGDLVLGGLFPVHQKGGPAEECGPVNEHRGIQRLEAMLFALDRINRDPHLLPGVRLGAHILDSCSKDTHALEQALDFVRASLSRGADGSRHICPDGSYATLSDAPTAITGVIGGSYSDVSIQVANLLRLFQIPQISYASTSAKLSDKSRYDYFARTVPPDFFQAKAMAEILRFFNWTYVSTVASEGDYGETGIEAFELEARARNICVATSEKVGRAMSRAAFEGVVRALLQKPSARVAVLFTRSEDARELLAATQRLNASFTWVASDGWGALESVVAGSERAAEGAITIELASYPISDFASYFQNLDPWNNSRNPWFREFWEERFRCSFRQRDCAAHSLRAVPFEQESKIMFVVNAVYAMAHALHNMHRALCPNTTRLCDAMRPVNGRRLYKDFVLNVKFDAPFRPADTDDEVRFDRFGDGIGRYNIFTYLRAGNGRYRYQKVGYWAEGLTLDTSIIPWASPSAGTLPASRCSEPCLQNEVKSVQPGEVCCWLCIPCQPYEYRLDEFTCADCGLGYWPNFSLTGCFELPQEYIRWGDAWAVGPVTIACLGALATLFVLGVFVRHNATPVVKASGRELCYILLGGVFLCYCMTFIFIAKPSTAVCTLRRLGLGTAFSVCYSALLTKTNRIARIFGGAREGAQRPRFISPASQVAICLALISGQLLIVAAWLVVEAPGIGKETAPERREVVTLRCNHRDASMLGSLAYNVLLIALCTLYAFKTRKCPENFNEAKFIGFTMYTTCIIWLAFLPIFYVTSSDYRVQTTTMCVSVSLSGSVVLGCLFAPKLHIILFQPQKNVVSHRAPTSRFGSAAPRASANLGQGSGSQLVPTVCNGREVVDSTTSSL

mGluR2 [2] = molecular target: mGluR2 (Mus musculus, UniProt Q14BI2); test: Functional calcium imaging, SNAP-mGluR2 (no FLAG-tag) with chimeric G protein Gqo5 in HEK293T cells; format: cell-based; design: Full length mGluR2 construct with an amber codon (TAG) mutation of amino acid A548 (azi-CRD) or N-terminal SNAP-tag (SNAP-mGluR2); host or cells: HEK293T; conditions: for Intracellular Ca2+ Response (normalized to 1mM glutamate), Mean: Glutamate + 15nM MNI-137
mGluR2 (Mus musculus, UniProt Q14BI2), sequence (Q14BI2 19-872): as the sequence (Q14BI2 19-872 A548F) above, with F530A counted along it

Substance: MNI-137
- smFRET Histogram, Mean (mGluR2 [1]; FRET 0.44, 15μM Glutamate + 5μM MNI-137): 0.0478
- smFRET Histogram, Mean (mGluR2 [1]; FRET 0.46, 0μM Glutamate + GPT/Pyruvate + 5μM MNI-137): 0.01122
- smFRET Histogram, Mean (mGluR2 [1]; FRET 0.46, 15μM Glutamate + 5μM MNI-137): 0.03818
- smFRET Histogram, Mean (mGluR2 [1]; FRET 0.48, 0μM Glutamate + GPT/Pyruvate + 5μM MNI-137): 0.00878
- smFRET Histogram, Mean (mGluR2 [1]; FRET 0.48, 15μM Glutamate + 5μM MNI-137): 0.02974
- smFRET Histogram, Mean (mGluR2 [1]; FRET 0.5, 0μM Glutamate + GPT/Pyruvate + 5μM MNI-137): 0.0069
- smFRET Histogram, Mean (mGluR2 [1]; FRET 0.5, 15μM Glutamate + 5μM MNI-137): 0.02283
- smFRET Histogram, Mean (mGluR2 [1]; FRET 0.52, 0μM Glutamate + GPT/Pyruvate + 5μM MNI-137): 0.00522
- smFRET Histogram, Mean (mGluR2 [1]; FRET 0.52, 15μM Glutamate + 5μM MNI-137): 0.01756
- smFRET Histogram, Mean (mGluR2 [1]; FRET 0.54, 0μM Glutamate + GPT/Pyruvate + 5μM MNI-137): 0.0038
- smFRET Histogram, Mean (mGluR2 [1]; FRET 0.54, 15μM Glutamate + 5μM MNI-137): 0.01395
- smFRET Histogram, Mean (mGluR2 [1]; FRET 0.56, 0μM Glutamate + GPT/Pyruvate + 5μM MNI-137): 0.00307
- smFRET Histogram, Mean (mGluR2 [1]; FRET 0.56, 15μM Glutamate + 5μM MNI-137): 0.01177
- smFRET Histogram, Mean (mGluR2 [1]; FRET 0.58, 0μM Glutamate + GPT/Pyruvate + 5μM MNI-137): 0.00238
- smFRET Histogram, Mean (mGluR2 [1]; FRET 0.58, 15μM Glutamate + 5μM MNI-137): 0.0101
- smFRET Histogram, Mean (mGluR2 [1]; FRET 0.6, 0μM Glutamate + GPT/Pyruvate + 5μM MNI-137): 0.00226
- smFRET Histogram, Mean (mGluR2 [1]; FRET 0.6, 15μM Glutamate + 5μM MNI-137): 0.0089
- smFRET Histogram, Mean (mGluR2 [1]; FRET 0.62, 15μM Glutamate + 5μM MNI-137): 0.0083
- smFRET Histogram, Mean (mGluR2 [1]; FRET 0.64, 0μM Glutamate + GPT/Pyruvate + 5μM MNI-137): 0.00164
- smFRET Histogram, Mean (mGluR2 [1]; FRET 0.64, 15μM Glutamate + 5μM MNI-137): 0.00824
- smFRET Histogram, Mean (mGluR2 [1]; FRET 0.66, 0μM Glutamate + GPT/Pyruvate + 5μM MNI-137): 0.00119
- smFRET Histogram, Mean (mGluR2 [1]; FRET 0.66, 15μM Glutamate + 5μM MNI-137): 0.00778
- smFRET Histogram, Mean (mGluR2 [1]; FRET 0.68, 0μM Glutamate + GPT/Pyruvate + 5μM MNI-137): 0.00129
- smFRET Histogram, Mean (mGluR2 [1]; FRET 0.68, 15μM Glutamate + 5μM MNI-137): 0.00775
- smFRET Histogram, Mean (mGluR2 [1]; FRET 0.7, 0μM Glutamate + GPT/Pyruvate + 5μM MNI-137): 0.00106
- smFRET Histogram, Mean (mGluR2 [1]; FRET 0.7, 15μM Glutamate + 5μM MNI-137): 0.00734
- smFRET Histogram, Mean (mGluR2 [1]; FRET 0.72, 0μM Glutamate + GPT/Pyruvate + 5μM MNI-137): 9.06E-04
- smFRET Histogram, Mean (mGluR2 [1]; FRET 0.72, 15μM Glutamate + 5μM MNI-137): 0.00691
- smFRET Histogram, Mean (mGluR2 [1]; FRET 0.74, 0μM Glutamate + GPT/Pyruvate + 5μM MNI-137): 8.03E-04
- smFRET Histogram, Mean (mGluR2 [1]; FRET 0.74, 15μM Glutamate + 5μM MNI-137): 0.00635
- smFRET Histogram, Mean (mGluR2 [1]; FRET 0.76, 0μM Glutamate + GPT/Pyruvate + 5μM MNI-137): 9.58E-04
- smFRET Histogram, Mean (mGluR2 [1]; FRET 0.76, 15μM Glutamate + 5μM MNI-137): 0.00599
- smFRET Histogram, Mean (mGluR2 [1]; FRET 0.78, 0μM Glutamate + GPT/Pyruvate + 5μM MNI-137): 9.38E-04
- smFRET Histogram, Mean (mGluR2 [1]; FRET 0.78, 15μM Glutamate + 5μM MNI-137): 0.00583
- smFRET Histogram, Mean (mGluR2 [1]; FRET 0.8, 0μM Glutamate + GPT/Pyruvate + 5μM MNI-137): 8.49E-04
- smFRET Histogram, Mean (mGluR2 [1]; FRET 0.8, 15μM Glutamate + 5μM MNI-137): 0.00559
- smFRET Histogram, Mean (mGluR2 [1]; FRET 0.82, 0μM Glutamate + GPT/Pyruvate + 5μM MNI-137): 9.70E-04
- smFRET Histogram, Mean (mGluR2 [1]; FRET 0.82, 15μM Glutamate + 5μM MNI-137): 0.00496
- smFRET Histogram, Mean (mGluR2 [1]; FRET 0.84, 0μM Glutamate + GPT/Pyruvate + 5μM MNI-137): 0.00112
- smFRET Histogram, Mean (mGluR2 [1]; FRET 0.84, 15μM Glutamate + 5μM MNI-137): 0.00504
- smFRET Histogram, Mean (mGluR2 [1]; FRET 0.86, 0μM Glutamate + GPT/Pyruvate + 5μM MNI-137): 0.00114
- smFRET Histogram, Mean (mGluR2 [1]; FRET 0.86, 15μM Glutamate + 5μM MNI-137): 0.00467
- smFRET Histogram, Mean (mGluR2 [1]; FRET 0.88, 0μM Glutamate + GPT/Pyruvate + 5μM MNI-137): 0.0011
- smFRET Histogram, Mean (mGluR2 [1]; FRET 0.9, 0μM Glutamate + GPT/Pyruvate + 5μM MNI-137): 0.0013
- smFRET Histogram, Mean (mGluR2 [1]; FRET 0.9, 15μM Glutamate + 5μM MNI-137): 0.00455
- smFRET Histogram, Mean (mGluR2 [1]; FRET 0.92, 0μM Glutamate + GPT/Pyruvate + 5μM MNI-137): 0.0011
- smFRET Histogram, Mean (mGluR2 [1]; FRET 0.92, 15μM Glutamate + 5μM MNI-137): 0.00382
- smFRET Histogram, Mean (mGluR2 [1]; FRET 0.94, 0μM Glutamate + GPT/Pyruvate + 5μM MNI-137): 8.72E-04
- smFRET Histogram, Mean (mGluR2 [1]; FRET 0.96, 0μM Glutamate + GPT/Pyruvate + 5μM MNI-137): 0.001
- smFRET Histogram, Mean (mGluR2 [1]; FRET 0.98, 0μM Glutamate + GPT/Pyruvate + 5μM MNI-137): 6.96E-04
- smFRET Histogram, Mean (mGluR2 [1]; FRET 1, 0μM Glutamate + GPT/Pyruvate + 5μM MNI-137): 4.51E-04
- smFRET Histogram, Mean (mGluR2 [1]; FRET 1.02, 0μM Glutamate + GPT/Pyruvate + 5μM MNI-137): 2.62E-04
- smFRET Histogram, Mean (mGluR2 [1]; FRET 1.04, 0μM Glutamate + GPT/Pyruvate + 5μM MNI-137): 1.50E-04
- smFRET Histogram, Mean (mGluR2 [1]; FRET 1.06, 0μM Glutamate + GPT/Pyruvate + 5μM MNI-137): 2.86E-05
- smFRET Histogram, Mean (mGluR2 [1]; FRET 1.08, 0μM Glutamate + GPT/Pyruvate + 5μM MNI-137): 2.33E-05
- smFRET Histogram, Mean (mGluR2 [1]; FRET 1.1, 0μM Glutamate + GPT/Pyruvate + 5μM MNI-137): 8.10E-05
- smFRET Histogram, Mean (mGluR2 [1]; FRET 1.12, 0μM Glutamate + GPT/Pyruvate + 5μM MNI-137): 1.94E-05
- smFRET Histogram, Mean (mGluR2 [1]; FRET 1.14, 0μM Glutamate + GPT/Pyruvate + 5μM MNI-137): 1.94E-05
- smFRET Histogram, Mean (mGluR2 [1]; FRET 1.16, 0μM Glutamate + GPT/Pyruvate + 5μM MNI-137): 9.97E-06
- smFRET Histogram, Mean (mGluR2 [1]; FRET 1.18, 0μM Glutamate + GPT/Pyruvate + 5μM MNI-137): 0
- smFRET Histogram, Mean (mGluR2 [1]; FRET 1.2, 0μM Glutamate + GPT/Pyruvate + 5μM MNI-137): 0
- Mean occupancy, state 1 (inactive, FRET 0.24) (mGluR2 [1]; 0 μM glutamate): 0.7486
- Mean occupancy, state 2 (intermediate 1, FRET 0.38) (mGluR2 [1]; 0 μM glutamate): 0.222
- Mean occupancy, state 3 (intermediate 2, FRET 0.70) (mGluR2 [1]; 0 μM glutamate): 0.02038
- Mean occupancy, state 4 (active, FRET 0.87) (mGluR2 [1]; 0 μM glutamate): 0.00903
- Mean occupancy, state 1 (inactive, FRET 0.24) (mGluR2 [1]; 15 μM glutamate): 0.1039
- Mean occupancy, state 2 (intermediate 1, FRET 0.38) (mGluR2 [1]; 15 μM glutamate): 0.7494
- Mean occupancy, state 3 (intermediate 2, FRET 0.70) (mGluR2 [1]; 15 μM glutamate): 0.1272
- Mean occupancy, state 4 (active, FRET 0.87) (mGluR2 [1]; 15 μM glutamate): 0.01952
- Mean occupancy, state 1 (inactive, FRET 0.24) (mGluR2 [1]; 1000 μM glutamate): 0.00207
- Mean occupancy, state 2 (intermediate 1, FRET 0.38) (mGluR2 [1]; 1000 μM glutamate): 0.5597
- Mean occupancy, state 3 (intermediate 2, FRET 0.70) (mGluR2 [1]; 1000 μM glutamate): 0.331
- Mean occupancy, state 4 (active, FRET 0.87) (mGluR2 [1]; 1000 μM glutamate): 0.1072
- Effect on receptor activation (calcium imaging) in the presence of glutamate (mGluR2 [2]; 10 μM NAM): block receptor activation
- Intracellular Ca2+ Response, % 1mM Glutamate (mGluR2 [2]; 1mM Glutamate + 15nM MNI-137, individual experiments): 73.406% and 76.302% and 82.093%
- Mean ΔEfficacy of glutamate (mGluR2 [2]; Ca2+ response, 1 mM glutamate + 15 nM modulator, ([1 mM glutamate + modulator] - [1 mM glutamate]) × 100): -22.7329
- ΔEfficacy of glutamate, individual experiments (mGluR2 [2]; Ca2+ response, 1 mM glutamate + 15 nM modulator, single replicate): -23.6976 and -17.9069 and -26.5942
- Mean ΔPotency of glutamate (mGluR2 [2]; Ca2+ response, glutamate + 15 nM modulator, (([modulator + glutamate]EC50 – [glutamate]EC50)/[glutamate]EC50) × 100): 30.7718
- ΔPotency of glutamate, individual experiments (mGluR2 [2]; Ca2+ response, glutamate + 15 nM modulator, single replicate): 55.4467 and 26.9701 and 9.898
- Intracellular Ca2+ Response (normalized to 1mM glutamate), Mean (mGluR2 [2]; log[Glutamate] (M) -3): 0.7727
- Intracellular Ca2+ Response (normalized to 1mM glutamate), Mean (mGluR2 [2]; log[Glutamate] (M) -3.60206): 0.7226
- Intracellular Ca2+ Response (normalized to 1mM glutamate), Mean (mGluR2 [2]; log[Glutamate] (M) -4.1549): 0.6149
- Intracellular Ca2+ Response (normalized to 1mM glutamate), Mean (mGluR2 [2]; log[Glutamate] (M) -4.52288): 0.4711
- Intracellular Ca2+ Response (normalized to 1mM glutamate), Mean (mGluR2 [2]; log[Glutamate] (M) -5): 0.2107
- Intracellular Ca2+ Response (normalized to 1mM glutamate), Mean (mGluR2 [2]; log[Glutamate] (M) -5.39794): 0.08277
- Intracellular Ca2+ Response (normalized to 1mM glutamate), Mean (mGluR2 [2]; log[Glutamate] (M) -5.82391): 0.01181
- Intracellular Ca2+ Response (normalized to 1mM glutamate), Mean (mGluR2 [2]; log[Glutamate] (M) -6.52288): 0
- Intracellular Ca2+ Response (normalized to 1mM glutamate), Mean (mGluR2 [2]; log[Glutamate] (M) -7): 0
